Patent publication US7691575B2, “Immunomodulatory compositions” (Academia Sinica, priority 2005, dated 2010)

Tested on: human IFN γ promoter
Test: IFN γ promoter reporter assay (dual luciferase, pIFN γ-Luc/pRL-TK) in transfected Jurkat cells
Assay type: cell-based
Experimental: Jurkat cells were transfected with pIFN γ-Luc and pRL-TK, or pIL-2 and pRL-TK, plasmid DNA constructs using electroporation and then treated with different plant crude extracts, which were prepared using boiling water. The fold induction was expressed in arbitrary units as the ratio of firefly luciferase activity (encoded by pIFN γ-Luc) to that of Renilla luciferase (pRL-TK).
A 615 base pair (bp) DNA fragment containing the human IFN γ promoter region from bp −487 to +128 (SEQ ID NO:1) was amplifed by polymerase chain reaction (PCR) using the specific primers (5′-[…]-3′ (SEQ ID NO:3) and 5′-[…]-3′ (SEQ ID NO:4))and human genomic DNA, isolated from blood, as a template. […]
Firefly and Renilla luciferase activities were measured in cell lysates made from transfected T-cells that were exposed to a plant extract or phytocompound, or underwent negative control treatment. […] The protein concentration in each lysate was determined using a Bradford reagent protein assay (Bio-Rad, Calif.).
Samples of ten micrograms of cell lysate protein were subjected to a dual luciferase reporter assay according to the manufacturer's instructions (Promega, Wis.). Firefly and Renilla luciferase activities were determined in each sample with a luminometer. […] The IFN γ or IL-2 promoter activity for each sample was calculated as a ratio of firefly luciferase to Renilla luciferase-dependent luminescence.

| SMILES | IFN γ promoter activity (100 μg/mL, relative to untreated cells, p<0.001) | IFN γ promoter activity (concentration not given) |
| --- | --- | --- |
| COc1ccc(-c2oc3cc(O[C@@H]4O[C@H](CO)[C@@H](O)[C@H](O)[C@H]4O)c(OC)c(O)c3c(=O)c2OC)cc1O [Centaurein, centaurein] | highly significant increase |  |
| O=C(/C=C/c1ccc(O)c(O)c1)O[C@@H]1[C@H](O)C[C@@](O)(C(=O)O)C[C@H]1OC(=O)/C=C/c1ccc(O)c(O)c1 [4,5-di-O-caffeoylquinic acid] |  | did not induce a significant increase |
